Measurements: US11571397B2, “Compositions and methods for treating seizure-induced sudden death” (ZOGENIX INTERNATIONAL LIMITED, priority 2018, dated 2023)

Columns and labels:
[1] = test system: DBA mice; details: cited from earlier work; for seizure-induced respiratory failure and death: DBA mice, dose-dependent
[2] = test system: DBA/1 mice; test: Reversal of FFA's anticonvulsant and S-IRA blocking effects by selective 5-HT receptor antagonists in DBA/1 mice; format: in vivo, mouse
Protocol: (§1) For these experiments, DBA/1 mice (N=287) were used (after subjecting to the established priming procedure to assure consistent susceptibility to S-IRA following AGSz) to assess the effects of fenfluramine on various 5-HT receptors. Seizures were induced using an electrical bell, and resuscitation was accomplished using a rodent respirator (Faingold et al., 2010). At least 24 hours after priming, the mice received FFA (15 mg/kg, i.p.) and were tested for AGSz and S-IRA susceptibility 16 hours later. Thirty minutes prior to AGSz induction, a selective 5-HT receptor antagonist or vehicle was administered to evaluate if a specific receptor contributes to the ability of FFA to block S-IRA. Seizure behaviors were recorded on videotape, quantified, and compared statistically with vehicle-treated negative and FFA-treated positive controls (Chi-Square Test; significance set at p<0.05).
Specifically, the antagonists tested were: the 5-HT1A antagonist WAY100635 (0.1-15 mg/kg); the 5-HT2 antagonist Ritanserin (10-20 mg/kg); the 5-HT3 antagonist Ondansetron (1-3 mg/kg); the 5-HT4 antagonist GR125487 (20-60 mg/kg); the 5-HT5A antagonist SB669551 (10-20 mg/kg); and the 5-HT7 antagonist SB269970 (30-40 mg/kg). Studies investigating the effect of 5-HT6 and 5-HT1a/1b antagonists are also underway.
as §1, with “mice” for “mice (N=287)”

[3] = dietary supplementation, DBA/1 mice

In the case of N[C@@H](Cc1c[nH]c2ccc(O)cc12)C(=O)O [5-hydroxytryptophan], the S-IRA [1, 3] is given as “blocked” and the “incidence of AGSz behaviors” value [1, 3] is given as “significantly reduced”.

With COc1[nH]c2ccc(F)cc2c1C(=O)OCC1CCN(CCNS(C)(=O)=O)CC1 [GR125487] the “reversal of the FFA-induced S-IRA blockade” value ([2]; antagonist 30 mg/kg, 30 min before AGSz, FFA 15 mg/kg i.p. 16 h before, p<0.05) was “partial reversal” and the “reversal of FFA's anticonvulsant effect against the severity of AGSz” value (“reversal of FFA's anticonvulsant effect” below) ([2]; antagonist 30 and 60 mg/kg, FFA 15 mg/kg) was “able to reverse”.

In the case of Cc1nccn1CC1CCc2c(c3ccccc3n2C)C1=O (centres unmarked) [Ondansetron], the “reversal of FFA's effect” value ([2]; antagonist 1-3 mg/kg, FFA 15 mg/kg) is reported as “not effective at any dose tested”.

With Cc1nc2sccn2c(=O)c1CCN1CCC(=C(c2ccc(F)cc2)c2ccc(F)cc2)CC1 [Ritanserin] the “reversal of FFA's anticonvulsant effect” value ([2]; antagonist 20 mg/kg, FFA 15 mg/kg) was “able to reverse”.

For CC1CCN(CC[C@H]2CCCN2S(=O)(=O)c2cccc(O)c2)CC1 [SB269970], the “reversal of FFA's anticonvulsant effect” value ([2]; antagonist 30 mg/kg and 40 mg/kg, FFA 15 mg/kg) was “able to reverse”.

With CN(C)CCN(Cc1ccc(-c2ccc(CNCCc3ccccc3)cc2)cc1)C(=O)CCC1CCCC1 [SB669551] the “effect on FFA's anticonvulsant effect” value ([2]; antagonist at 20 mg/kg, FFA 15 mg/kg) was “blocked”.

With COc1ccccc1N1CCN(CCN(C(=O)C2CCCCC2)c2ccccn2)CC1 [WAY100635] the “reversal of FFA's effect” value ([2]; antagonist 0.1-15 mg/kg, FFA 15 mg/kg) was “not effective at any dose tested”.

For CNCC[C@@H](Oc1ccccc1C)c1ccccc1 [atomoxetine], the “seizure-induced respiratory failure and death” value [1] is listed as “prevent”.

In the case of CNCCC(Oc1ccc(C(F)(F)F)cc1)c1ccccc1 (centres unmarked) [fluoxetine], the “seizure-induced respiratory failure and death” value [1] is listed as “prevent”.

For COCCCC/C(=N\OCCN)c1ccc(C(F)(F)F)cc1 [fluvoxamine], the “seizure-induced respiratory failure and death” value [1] is listed as “prevent”.

For CN[C@H]1CC[C@@H](c2ccc(Cl)c(Cl)c2)c2ccccc21 [sertraline], the “seizure-induced respiratory failure and death” value [1] is listed as “prevent”.

For COc1ccc(C(CN(C)C)C2(O)CCCCC2)cc1 (centres unmarked) [venlafaxine], the “seizure-induced respiratory failure and death” value [1] is given as “prevent”.
